Settings: Liquid

CC(C)CO [2-methyl-1-propanol]
Settings	vapor or sublimation pressure [kPa]
357.45 K	40
364.17 K	53.33
369.67 K	66.66
374.35 K	79.99
378.45 K	93.32
379.96 K	98.66

CC(C)(C)O [2-methylpropan-2-ol]
Settings	vapor or sublimation pressure [kPa]
333.9 K	40
340.13 K	53.33
345.21 K	66.66
349.53 K	79.99
353.32 K	93.32
354.61 K	98.66

CCCCO [butan-1-ol]
Settings	vapor or sublimation pressure [kPa]
366.76 K	40
373.74 K	53.33
379.43 K	66.66
384.26 K	79.99
388.49 K	93.32
390.04 K	98.66

CCC(C)O (stereo unspecified) [butan-2-ol]
Settings	vapor or sublimation pressure [kPa]
349.73 K	40
356.36 K	53.33
361.77 K	66.66
366.36 K	79.99
370.38 K	93.32
371.86 K	98.66

CCO [ethanol]
Settings	vapor or sublimation pressure [kPa]
329.62 K	40
335.99 K	53.33
341.2 K	66.66
345.6 K	79.99
349.42 K	93.32
350.82 K	98.66

CO [methanol]
Settings	vapor or sublimation pressure [kPa]
315.75 K	40
322.15 K	53.33
327.34 K	66.66
331.73 K	79.99
335.57 K	93.32
336.98 K	98.66

CCCO [propan-1-ol]
Settings	vapor or sublimation pressure [kPa]
347.55 K	40
354.18 K	53.33
359.56 K	66.66
364.11 K	79.99
368.08 K	93.32
369.55 K	98.66

CC(C)O [propan-2-ol]
Settings	vapor or sublimation pressure [kPa]
333.94 K	40
340.18 K	53.33
345.25 K	66.66
349.55 K	79.99
353.3 K	93.32
354.67 K	98.66

C1CCOCC1 [tetrahydropyran]
Settings	mass density [kg/m3]
298.15 K, 101.33 kPa, Vibrating tube method	879

Settings	vapor or sublimation pressure [kPa]
332.98 K	40
341.09 K	53.33
347.72 K	66.66
353.38 K	79.99
358.37 K	93.32
360.22 K	98.66
361.23 K	101.32

Reference: the NIST ThermoML archive (doi:10.1021/je800145h)
